The text below walks through data of patent US11590139B2, “Substituted aminopurine compounds, compositions thereof, and methods of treatment therewith” (Signal Pharmaceuticals, LLC, priority 2014, dated 2023).

Structures are written as SMILES.

The subject of the first experiment is Lox-IMVI melanoma cell line. Put plainly: Lox-IMVI anti-proliferative assay (growth inhibition, Cell Titer-Glo). It counts as cell-based, human. The following applies: Homo sapiens; IC50 activity level in the cell-based Lox-IMVI anti-proliferative assay; read-out: Activity. The method, then: Determination of the Growth Inhibitory Effect of Aminopurine Compounds. The Lox-IMVI melanoma cell line (Source: NCI-DCTD, catalog No. 0507283) was maintained and tested in RPMI+10% FBS. The seeding density for the cell line was optimized to ensure assay linearity in 384-well plates.
Increasing concentrations of Aminopurine Compound (0.5 nM to 10 μM) were spotted in a 10-point serial dilution fashion (3-fold dilution) in duplicate within the plate via an acoustic dispenser (EDC ATS-100) into an empty 384-well plate. The dimethyl sulfoxide (DMSO) concentration was kept constant for a final assay concentration of 0.2% DMSO. Prior to testing, cells were grown and expanded in culture flasks to provide sufficient amounts of starting material. Cells were then diluted to their desired densities and added directly to the compound-spotted 384-well plates. Cells were allowed to grow for 72 hours in 5% CO2 at 37° C. At the time when exposure of cells to compound began (t0), initial cell number was assessed via a viability assay (Cell Titer-Glo) by quantifying the level of luminescence generated by adenosine-5′-triphosphate (ATP) present in viable cells. After 72 hours, cell viability of compound-treated cells was assessed via Cell Titer-Glo Luminescent Cell Viability Assay (Promega Corporation, Madison, Wis.) and read for luminescence.
All data was normalized and represented as a percentage of the DMSO-treated control cells after 72 h. Results were expressed as a IC50 value, which is the compound concentration required to inhibit 50% of the untreated control cells during the 72 hours of treatment.
A Four Parameter Logistic Model (Sigmoidal Dose-Response Model) was used to determine the compound's IC50. y=(A+((B−A)/(1+((C/x)^D))))
wherein: • A=YMin • B=YMax • C=EC50 • D=Hill Slope • IC50 is the compound concentration when Y=50% of DMSO control • Y=Luminescence unit
All inhibition curves were processed and evaluated using XLFit and Activity Base (IDBS).
For the compound `Cc1c(Cl)ccc(F)c1Nc1nc2cnc(NC3CCOCC3)nc2n1[C@H]1CC[C@@H](C(N)=O)CC1` [Example 79, (1s,4s)-4-(8-(3-chloro-6-fluoro-2-methylphenylamino)-2-(tetrahydro-2H-pyran-4-ylamino)-9H-purin-9-yl)cyclohexanecarboxamide], the IC50 was above 1 µM.
The same measure, in the same setting: next, `CC1(C)CC[C@@H](Nc2ncc3nc(Nc4c(F)cccc4Cl)n([C@H]4CC[C@@H](C(N)=O)CC4)c3n2)C[C@H]1O` [Example 384, (1S,4s)-4-(8-(2-chloro-6-fluorophenylamino)-2-((1R,3R)-3-hydroxy-4,4-dimethylcyclohexylamino)-9H-purin-9-yl)cyclohexanecarboxamide]: above 1 µM; `NC(=O)[C@H]1CC[C@@H](n2c(Nc3c(Cl)cc(F)cc3Cl)nc3cnc(NC4COCC4O)nc32)CC1` (some centres unmarked) [Example 183, (1s,4s)-4-(8-(2,6-dichloro-4-fluorophenylamino)-2-(4-hydroxytetrahydrofuran-3-ylamino)-9H-purin-9-yl)cyclohexanecarboxamide]: above 1 µM.
Still for that read-out and setting: under `C[C@@H](CO)Nc1ncc2nc(Nc3cccc(Cl)c3F)n([C@H]3CC[C@@H](C(N)=O)CC3)c2n1` [Example 172, (1R,4s)-4-(8-(3-chloro-2-fluorophenylamino)-2-((S)-1-hydroxypropan-2-ylamino)-9H-purin-9-yl)cyclohexanecarboxamide] stands above 1 µM; under `NC(=O)[C@H]1CC[C@@H](n2c(Nc3c(F)cccc3F)nc3cnc(N[C@H]4CCOC[C@H]4F)nc32)CC1` [Example 305, (1R,4s)-4-(8-(2,6-difluorophenylamino)-2-((3S,4S)-3-fluorotetrahydro-2H-pyran-4-ylamino)-9H-purin-9-yl)cyclohexanecarboxamide], 0.5 to 1 µM; under `NC(=O)[C@H]1CC[C@@H](n2c(Nc3c(F)cc(F)cc3F)nc3cnc(N[C@@H]4CC[C@@H](O)C4)nc32)CC1` [Example 207, (1S,4s)-4-(2-((1R,3R)-3-hydroxycyclopentylamino)-8-(2,4,6-trifluorophenylamino)-9H-purin-9-yl)cyclohexanecarboxamide], above 1 µM.
With `NC(=O)[C@H]1CC[C@@H](n2c(Nc3c(F)cc(F)cc3F)nc3cnc(N[C@@H]4CCC[C@H]4O)nc32)CC1` [Example 249, (1S,4s)-4-(2-((1R,2R)-2-hydroxycyclopentylamino)-8-(2,4,6-tnfluorophenylamino)-9H-purin-9-yl)cyclohexanecarboxamide], the IC50 was above 1 µM.
`C[C@@H]1CC[C@@H](Nc2ncc3nc(Nc4c(F)cc(Cl)cc4Cl)n([C@H]4CC[C@@H](C(N)=O)CC4)c3n2)C[C@H]1O` [Example 346, (1S,4s)-4-(8-(2,4-dichloro-6-fluorophenylamino)-2-((1R,3R,4R)-3-hydroxy-4-methylcyclohexylamino)-9H-purin-9-yl)cyclohexanecarboxamide]: the IC50 was in the range of 0.25 to 0.5 µM.
With `NC(=O)[C@H]1CC[C@@H](n2c(Nc3ccc(Cl)cc3F)nc3cnc(NC4CCOCC4)nc32)CC1` [Example 60, (1s,4s)-4-(8-(4-chloro-2-fluorophenylamino)-2-(tetrahydro-2H-pyran-4-ylamino)-9H-purin-9-yl)cyclohexanecarboxamide], the IC50 is 0.5 to 1 µM.
For `NC(=O)[C@H]1CC[C@@H](n2c(Nc3c(F)ccc(Cl)c3F)nc3cnc(NC4CCOCC4)nc32)CC1` [Example 67, (1s,4s)-4-(8-(3-chloro-2,6-difluorophenylamino)-2-(tetrahydro-2H-pyran-4-ylamino)-9H-purin-9-yl)cyclohexanecarboxamide], the IC50 is above 1 µM.

The experiment is the same for the next values; noted with them: Homo sapiens; Lox-IMVI anti-proliferative assay, IC50 activity level; read-out: Activity.
For the compound `N#Cc1cc(F)c(Nc2nc3cnc(N[C@@H]4CCOC4)nc3n2[C@H]2CC[C@@H](C(N)=O)CC2)c(F)c1` [Example 529, (1S,4s)-4-(8-(4-cyano-2,6-difluorophenylamino)-2-((R)-tetrahydrofuran-3-ylamino)-9H-purin-9-yl)cyclohexanecarboxamide], the IC50 was above 1 µM.
On the same count and under the same terms, next, `NC(=O)[C@H]1CC[C@@H](n2c(Nc3c(F)cc(F)cc3Cl)nc3cnc(N[C@@H]4CCC[C@@H](O)C4)nc32)CC1` [Example 420, (1S,4s)-4-(8-(2-chloro-4,6-difluorophenylamino)-2-((1R,3R)-3-hydroxycyclohexylamino)-9H-purin-9-yl)cyclohexanecarboxamide]: above 1 µM; `NC(=O)[C@H]1CC[C@@H](n2c(Nc3c(F)cc(Cl)cc3F)nc3cnc(N[C@H]4CCC(F)(F)C4)nc32)CC1` [Example 587, (1R,4s)-4-(8-(4-chloro-2,6-difluorophenylarnino)-2-((S)-3,3-difluorocyclopentylamino)-9H-purin-9-yl)cyclohexanecarboxamide]: 0.25 to 0.5 µM.
The same measure, in the same setting: next, `C[C@]1(C(N)=O)CC[C@H](n2c(Nc3c(Cl)cc(F)cc3Cl)nc3cnc(NC4CCCC4)nc32)CC1` [Example 493, (1r,4r)-4-(2-(cyclopentylamino)-8-(2,6-dichloro-4-fluorophenylamino)-9H-purin-9-yl)-1-methylcyclohexanecarboxamide]: above 1 µM; `NC(=O)[C@H]1CC[C@@H](n2c(Nc3c(Cl)cc(C(F)(F)F)cc3Cl)nc3cnc(N[C@@H]4CCC[C@H](O)C4)nc32)CC1` [Example 454, (1S,4s)-4-(8-(2,6-dichloro-4-(trifluoromethyl)phenylamino)-2-((1R,3S)-3-hydroxycyclohexylamino)-9H-purin-9-yl)cyclohexanecarboxamide]: 0.5 to 1 µM; `NC(=O)[C@H]1CC[C@@H](n2c(Nc3c(Cl)cc(OC(F)(F)F)cc3Cl)nc3cnc(NC4CCC(F)(F)CC4)nc32)CC1` [Example 596, (1s,4s)-4-(8-(2,6-dichloro-4-(trifluoromethoxy)phenylamino)-2-(4,4-difluorocyclohexylamino)-9H-purin-9-yl)cyclohexanecarboxamide]: above 1 µM.
Consider `C[C@]1(C(N)=O)CC[C@H](n2c(Nc3c(Cl)cc(C#N)cc3Cl)nc3cnc(NC4CCC(F)(F)CC4)nc32)CC1` [Example 479, (1r,4r)-4-(8-(2,6-dichloro-4-cyanophenylamino)-2-(4,4-difluorocyclohexylamino)-9H-purin-9-yl)-1-methylcyclohexanecarboxamide], for which the IC50 was above 1 µM.

The experiment is the same for the next values; noted with them: Homo sapiens; Lox-IMVI melanoma cell line, anti-proliferative assay; read-out: Activity (IC50 activity level).
For `CNC(=O)N1CCC[C@@H](Nc2ncc3nc(Nc4c(F)cc(Cl)cc4Cl)n([C@H]4CC[C@@H](C(N)=O)CC4)c3n2)C1` [Example 706, (R)-3-(9-((1s,4S)-4-carbamoylcyclohexyl)-8-(2,4-dichloro-6-fluorophenylamino)-9H-purin-2-ylamino)-N-methylpiperidine-1-carboxamide], the IC50 was above 1 µM.
As to `CC(=O)N1CCC[C@@H](Nc2ncc3nc(Nc4c(Cl)cc(C(F)(F)F)cc4Cl)n([C@H]4CC[C@@H](C(N)=O)CC4)c3n2)C1` [Example 798, (1S,4s)-4-(2-((R)-1-acetylpiperidin-3-ylamino)-8-(2,6-dichloro-4-(trifluoromethyl)phenylamino)-9H-purin-9-yl)cyclohexanecarboxamide], the IC50 is above 1 µM.
The same measure, in the same setting: under `COC(=O)N1CCC[C@@H](Nc2ncc3nc(Nc4c(Cl)cc(C#N)cc4Cl)n([C@H]4CC[C@@H](C(N)=O)CC4)c3n2)C1` [Example 708, (R)-methyl 3-(9-((1s,4S)-4-carbamoylcyclohexyl)-8-(2,6-dichloro-4-cyanophenylamino)-9H-purin-2-ylamino)piperidine-1-carboxylate] stands 0.25 to 0.5 µM.
